Assays:
[1] = molecular target: Sodium-dependent noradrenaline transporter (Homo sapiens, UniProt P23975); experiment: DRUGMATRIX: Norepinephrine Transporter radioligand binding (ligand: [125I] RTI-55); format: cell membranes, MDCK, Membrane; conditions: mdck; Not Active = under 50% inhibition at 10 µM
[2] = molecular target: T1, Type-2 angiotensin II receptor (Homo sapiens, UniProt P50052); format: cell-based; conditions: cho-k1; also: in other assays of this panel Not Active means under 50% inhibition at 10 µM
T1 sequence (P50052 whole entry): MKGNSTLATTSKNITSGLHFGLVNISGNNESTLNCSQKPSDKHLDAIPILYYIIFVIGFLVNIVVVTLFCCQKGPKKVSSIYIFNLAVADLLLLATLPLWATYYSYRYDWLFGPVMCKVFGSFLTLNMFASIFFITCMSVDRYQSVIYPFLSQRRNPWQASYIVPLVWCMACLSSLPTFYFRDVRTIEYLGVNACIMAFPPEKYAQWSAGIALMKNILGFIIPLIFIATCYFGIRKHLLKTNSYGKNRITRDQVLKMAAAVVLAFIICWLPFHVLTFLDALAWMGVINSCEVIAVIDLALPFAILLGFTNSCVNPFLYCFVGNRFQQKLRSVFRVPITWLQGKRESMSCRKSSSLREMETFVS

[3] = DRUGMATRIX: beta-Lactamase enzyme inhibition (substrate: Nitrocefin); design: species or system Bacillus cereus; conditions: Not Active = under 50% inhibition at 10 µM
[4] = DRUGMATRIX: Serotonin (5-Hydroxytryptamine) 5-HT3 radioligand binding (ligand: [3H] GR-65630); format: cell membranes, Membrane; conditions: hek293; Not Active = under 50% inhibition at 10 µM
Vasopressin V1a receptor = Vasopressin V1a receptor (Homo sapiens, UniProt P37288); format: cell membranes, Membrane; conditions: hek293; also: in other assays of this panel Not Active means under 50% inhibition at 10 µM
Vasopressin V1a receptor, sequence (P37288 whole entry): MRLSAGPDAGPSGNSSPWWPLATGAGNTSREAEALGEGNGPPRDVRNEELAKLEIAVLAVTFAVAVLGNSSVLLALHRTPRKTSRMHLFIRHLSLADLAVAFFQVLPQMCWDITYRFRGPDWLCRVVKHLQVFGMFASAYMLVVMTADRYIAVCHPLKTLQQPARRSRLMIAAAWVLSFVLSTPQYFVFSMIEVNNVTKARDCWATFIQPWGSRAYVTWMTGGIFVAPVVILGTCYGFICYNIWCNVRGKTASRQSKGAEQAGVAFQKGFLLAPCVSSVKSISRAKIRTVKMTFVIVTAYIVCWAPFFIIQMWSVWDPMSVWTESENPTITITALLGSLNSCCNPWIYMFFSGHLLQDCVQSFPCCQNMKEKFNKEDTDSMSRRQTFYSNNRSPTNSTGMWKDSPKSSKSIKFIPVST

[5] = DRUGMATRIX: Glutamate, AMPA radioligand binding (ligand: [3H] AMPA); format: cell membranes, Rattus norvegicus, Wistar, Cerebral cortex, Membrane; conditions: Not Active = under 50% inhibition at 10 µM
[6] = molecular target: Matrix metalloproteinase-9 (Homo sapiens, UniProt P14780); experiment: biochemical; format: cell-based;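 also: inhibition of isolated MMP-9 enzyme activity toward a synthetic peptide substrate, from the DrugMatrix protease screening panel; in other assays of this panel Not Active means under 50% inhibition at 10 µM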
Matrix metalloproteinase-9, sequence (P14780 whole entry): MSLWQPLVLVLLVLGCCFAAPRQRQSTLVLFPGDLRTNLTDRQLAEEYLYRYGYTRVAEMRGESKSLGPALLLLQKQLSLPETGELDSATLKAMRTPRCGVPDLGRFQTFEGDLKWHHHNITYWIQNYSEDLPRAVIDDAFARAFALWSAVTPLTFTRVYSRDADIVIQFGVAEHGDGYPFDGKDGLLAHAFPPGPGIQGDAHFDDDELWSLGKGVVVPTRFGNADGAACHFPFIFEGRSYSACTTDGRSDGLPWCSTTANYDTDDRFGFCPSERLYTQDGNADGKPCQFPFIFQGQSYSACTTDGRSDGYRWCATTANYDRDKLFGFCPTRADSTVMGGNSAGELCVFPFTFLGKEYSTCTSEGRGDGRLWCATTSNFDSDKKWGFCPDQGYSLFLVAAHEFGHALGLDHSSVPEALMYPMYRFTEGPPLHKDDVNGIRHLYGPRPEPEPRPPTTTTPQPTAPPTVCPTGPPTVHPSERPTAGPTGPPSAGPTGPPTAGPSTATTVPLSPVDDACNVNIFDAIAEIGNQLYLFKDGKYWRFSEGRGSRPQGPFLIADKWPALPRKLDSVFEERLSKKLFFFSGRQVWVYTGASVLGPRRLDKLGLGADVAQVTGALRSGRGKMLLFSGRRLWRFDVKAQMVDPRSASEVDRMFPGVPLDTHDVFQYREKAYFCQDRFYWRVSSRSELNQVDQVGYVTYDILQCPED

Sodium-dependent noradrenaline transporter, sequence (P23975 whole entry): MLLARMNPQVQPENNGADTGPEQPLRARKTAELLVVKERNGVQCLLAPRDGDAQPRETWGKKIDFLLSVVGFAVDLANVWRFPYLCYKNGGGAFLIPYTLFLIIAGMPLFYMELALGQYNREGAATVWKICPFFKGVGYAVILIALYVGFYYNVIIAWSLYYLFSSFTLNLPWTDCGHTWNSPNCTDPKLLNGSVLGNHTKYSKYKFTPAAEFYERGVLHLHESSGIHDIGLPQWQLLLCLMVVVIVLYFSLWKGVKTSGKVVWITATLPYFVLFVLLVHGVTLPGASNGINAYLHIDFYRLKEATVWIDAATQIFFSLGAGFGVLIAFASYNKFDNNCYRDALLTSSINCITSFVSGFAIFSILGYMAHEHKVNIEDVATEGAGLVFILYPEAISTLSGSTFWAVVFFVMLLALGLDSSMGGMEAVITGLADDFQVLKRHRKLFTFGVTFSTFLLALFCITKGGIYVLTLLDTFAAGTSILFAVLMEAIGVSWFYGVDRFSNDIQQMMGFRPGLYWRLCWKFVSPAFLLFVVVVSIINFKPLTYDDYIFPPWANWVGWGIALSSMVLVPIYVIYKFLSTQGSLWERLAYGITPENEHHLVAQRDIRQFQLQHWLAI

SMILES | IC50 [1] | IC50 [2] | IC50 [3] | Ki [3] | IC50 [4] | Ki [4] | IC50 (Vasopressin V1a receptor) | IC50 [5] | Ki [5] | IC50 [6] | IC50 ([6]; read-out: IC50) [nM]
C[N+](C)(C)CCO.[Cl-] [CHOLINE CHLORIDE] | Not Active | Not Active | Not Active | Not Active | Not Active | Not Active | Not Active | Not Active | Not Active | Not Active | –
CCOC(=O)C(C)(C)Oc1ccc(Cl)cc1 [CLOFIBRATE] | Not Active | Not Active | Not Active | Not Active | Not Active | Not Active | Not Active | Not Active | Not Active | Not Active | –
CC(=O)OCC(=O)[C@@]1(O)CC[C@H]2[C@@H]3CCC4=CC(=O)CC[C@]4(C)[C@H]3C(=O)C[C@@]21C [CORTISONE ACETATE] | Not Active | Not Active | Not Active | Not Active | Not Active | Not Active | Not Active | Not Active | Not Active | Not Active | –
O=c1ccc2ccccc2o1 [COUMARIN] | Not Active | Not Active | Not Active | Not Active | Not Active | Not Active | Not Active | Not Active | Not Active | Not Active | –
C[C@@H]1C[C@@H]([C@H](O)CC2CC(=O)NC(=O)C2)C(=O)[C@@H](C)C1 [CYCLOHEXIMIDE] | Not Active | Not Active | Not Active | Not Active | Not Active | Not Active | Not Active | Not Active | Not Active | Not Active | –
C/C=C/C[C@@H](C)[C@@H](O)[C@H]1C(=O)N[C@@H](CC)C(=O)N(C)CC(=O)N(C)[C@@H](CC(C)C)C(=O)N[C@@H](C(C)C)C(=O)N(C)[C@@H](CC(C)C)C(=O)N[C@@H](C)C(=O)N[C@H](C)C(=O)N(C)[C@@H](CC(C)C)C(=O)N(C)[C@@H](CC(C)C)C(=O)N(C)[C@@H](C(C)C)C(=O)N1C [CYCLOSPORINE] | Not Active | Not Active | Not Active | Not Active | Not Active | Not Active | Not Active | Not Active | Not Active | Not Active | –
CN(C)/N=N/c1[nH]cnc1C(N)=O [DACARBAZINE] | Not Active | Not Active | Not Active | Not Active | Not Active | Not Active | Not Active | Not Active | Not Active | – | 556
COc1ccc2c(c1)[C@]13CCCC[C@@H]1[C@H](C2)N(C)CC3 [DEXTROMETHORPHAN] | Not Active | Not Active | Not Active | Not Active | Not Active | Not Active | Not Active | Not Active | Not Active | Not Active | –
CC(=O)Nc1c(I)c(NC(C)=O)c(I)c(C(=O)O)c1I [DIATRIZOIC ACID] | Not Active | Not Active | Not Active | Not Active | Not Active | Not Active | Not Active | Not Active | Not Active | Not Active | –
COP(=O)(OC)OC=C(Cl)Cl [DICHLORVOS] | Not Active | Not Active | Not Active | Not Active | Not Active | Not Active | Not Active | Not Active | Not Active | Not Active | –

Source: ChEMBL document CHEMBL1909046, “DrugMatrix in vitro pharmacology data”
